Assay results as given in patent publication US20150166523A1, “BRANCHED CHAIN ALKYL HETEROAROMATIC RING DERIVATIVE” (TAISHO PHARMACEUTICAL CO., LTD., priority 2012, published 2015).
pIC50: −log10 of the molar value.

Experiments:
[1] = biological target: T1, orexin-2 receptor (hOX2R) (Homo sapiens, UniProt O43614); assay: Measurement of orexin antagonistic activity (intracellular Ca2+ fluorescence, FDSS) on hOX2R; assay type: cell-based; conditions: CHO cells forcibly expressing hOX2R; Fluo-4AM; ligand peptide (substituted human orexin-A) 3 nM; compound preincubated 30 minutes; read-out: IC50 Value OX2
T1 construct: expressed in transfected cells; host or cells: Chinese hamster ovary (CHO) cells
T1 sequence (O43614 1-444): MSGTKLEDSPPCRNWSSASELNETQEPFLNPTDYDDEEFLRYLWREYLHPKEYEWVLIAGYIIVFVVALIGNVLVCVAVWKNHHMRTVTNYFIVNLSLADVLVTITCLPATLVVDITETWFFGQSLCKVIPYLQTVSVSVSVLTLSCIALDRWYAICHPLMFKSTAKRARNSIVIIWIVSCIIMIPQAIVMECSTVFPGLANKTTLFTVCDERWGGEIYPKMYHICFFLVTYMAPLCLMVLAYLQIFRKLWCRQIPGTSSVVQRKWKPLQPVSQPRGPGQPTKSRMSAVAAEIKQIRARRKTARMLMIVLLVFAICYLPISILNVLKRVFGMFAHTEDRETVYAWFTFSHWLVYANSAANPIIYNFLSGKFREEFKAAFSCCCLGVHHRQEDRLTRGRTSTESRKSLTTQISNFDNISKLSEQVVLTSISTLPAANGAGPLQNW
Experimental: (§1) The antagonistic activities of the test compounds on human orexin-1 receptor (hOX1R) and orexin-2 receptor (hOX2R) were measured by modifying from the method described in literature (Toshikatsu Okumura et al., Biochemical and Biophysical Research Communications, 280, 976-981, 2001). Chinese hamster ovary (CHO) cells forcibly expressing the hOX1R and hOX2R were seeded into a 96 well Black clear bottom plate (Nunc) at 20,000 cells per well, which were cultured in Ham's F-12 medium containing 0.1 mM MEM non-essential amino acids, 0.5 mg/mL G418, 10% fetal bovine serum (all by Invitrogen) for 16 hours under the conditions of 37° C., 5% CO2. After removing the medium, 100 μL of 0.5 μM Fluo-4AM ester (Dojin) in an assay buffer (25 mM HEPES (Dojin), Hank's balanced salt solution (Invitrogen), 0.1% bovine serum albumin, 2.5 mM probenecid, 200 μg/mL Amaranth (all by Sigma-Aldrich), pH 7.4) was added and the cells were incubated for 60 minutes at 37° C., 5% CO2. After removing the assay buffer containing fluo-4AM ester, the test compound was dissolved in dimethyl sulfoxide to be 10 mM and diluted with the assay buffer, 150 μL, of which was added and incubated for 30 minutes.
(§2) The reaction was measured for the fluorescence intensity of each well every second for 3 minutes using Functional Drug Screening System (FDSS; Hamamatsu Photonics K.K.), and the antagonistic activity was determined using the maximum fluorescence intensity as the indicator of intracellular Ca2+ concentration.

[2] = biological target: T2, human orexin-1 receptor (hOX1R) (Homo sapiens, UniProt O43613); assay: Measurement of orexin antagonistic activity (intracellular Ca2+ fluorescence, FDSS) on hOX1R; assay type: cell-based; conditions: CHO cells forcibly expressing hOX1R; Fluo-4AM; ligand peptide (substituted human orexin-A) 300 pM; compound preincubated 30 minutes; read-out: IC50 Value OX1
T2 construct: expressed in transfected cells; host or cells: Chinese hamster ovary (CHO) cells
T2 sequence (O43613 1-425): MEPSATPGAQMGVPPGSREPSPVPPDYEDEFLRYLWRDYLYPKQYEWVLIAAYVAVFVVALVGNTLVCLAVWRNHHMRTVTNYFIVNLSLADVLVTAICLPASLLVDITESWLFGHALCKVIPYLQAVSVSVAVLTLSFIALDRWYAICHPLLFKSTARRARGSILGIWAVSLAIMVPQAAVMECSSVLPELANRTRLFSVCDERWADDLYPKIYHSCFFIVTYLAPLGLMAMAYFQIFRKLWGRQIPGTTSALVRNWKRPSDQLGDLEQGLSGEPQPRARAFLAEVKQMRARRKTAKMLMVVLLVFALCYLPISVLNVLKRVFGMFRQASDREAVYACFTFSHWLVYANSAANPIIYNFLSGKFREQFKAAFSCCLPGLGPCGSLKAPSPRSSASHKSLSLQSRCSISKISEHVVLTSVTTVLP
Experimental: as §1, §2

pIC50 [1] | pIC50 [2] | SMILES
8.02 | 9.10 | CCN(C(=O)c1cc(C)ccc1-n1nccn1)[C@@H](C)Cc1noc(-c2ccc(F)cn2)n1 [Example 47, N-Ethyl-N-{(2S)-1-[5-(5-fluoropyridin-2-yl)-1,2,4-oxadiazol-3-yl]propan-2-yl}-5-methyl-2-(2H-1,2,3-triazol-2-yl) benzamide]
7.77 | 9.10 | CCN(C(=O)c1cc(F)ccc1-n1nccn1)[C@@H](C)Cc1noc(-c2ccc(F)cc2)n1 [Example 50, N-Ethyl-5-fluoro-N-{(2S)-1-[5-(4-fluorophenyl)-1,2,4-oxadiazol-3-yl]propan-2-yl}-2-(2H-1,2,3-triazol-2-yl) benzamide]
8.03 | 9.70 | CCN(C(=O)c1ccccc1-n1nccn1)[C@@H](C)Cc1noc(-c2ccc(F)cc2)n1 [Example 51, N-Ethyl-N-{(2S)-1-[5-(4-fluorophenyl)-1,2,4-oxadiazol-3-yl]propan-2-yl}-2-(2H-1,2,3-triazol-2-yl)benzamide]
8.00 | 9.30 | Cc1ccc(-n2nccn2)c(C(=O)N(C)[C@@H](C)Cc2noc(-c3ccc(F)cc3)n2)c1 [Example 59, N-{(2S)-1-[5-(4-Fluorophenyl)-1,2,4-oxadiazol-3-yl]propan-2-yl}-N,5-dimethyl-2-(2H-1,2,3-triazol-2-yl) benzamide]
8.48 | 9.15 | CCN(C(=O)c1cc(C)ccc1-n1nccn1)[C@@H](C)Cc1noc(-c2ccc(F)cc2)n1 [Example 61]
8.64 | 9.15 | CCN(C(=O)c1cc(C)ccc1-n1nccn1)[C@@H](C)Cn1nnc(-c2ccc(F)cc2)n1 [Example 62, N-Ethyl-N-{(2S)-1-[5-(4-fluorophenyl)-2H-tetrazol-2-yl]propan-2-yl}-5-methyl-2-(2H-1,2,3-triazol-2-yl)benzamide]
7.17 | 8.66 | COCCN(C(=O)c1cc(C)ccc1-n1nccn1)[C@@H](C)Cn1nnc(-c2ccc(F)cc2)n1 [Example 63, N-{(2S)-1-[5-(4-Fluorophenyl)-2H-tetrazol-2-yl]propan-2-yl}-N-(2-methoxyethyl)-5-methyl-2-(2H-1,2,3-triazol-2-yl)benzamide]
7.32 | 9.00 | Cc1ccc(-n2nccn2)c(C(=O)N(CCO)[C@@H](C)Cn2nnc(-c3ccc(F)cc3)n2)c1 [Example 64, N-{(2S)-1-[5-(4-Fluorophenyl)-2H-tetrazol-2-yl]propan-2-yl}-N-(2-hydroxyethyl)-5-methyl-2-(2H-1,2,3-triazol-2-yl)benzamide]
6.84 | 8.89 | CCN(C(=O)c1nc(C)ccc1-n1nccn1)[C@@H](C)Cn1nnc(-c2ccc(F)cc2)n1 [Example 65, N-Ethyl-N-{(2S)-1-[5-(4-fluorophenyl)-2H-tetrazol-2-yl]propan-2-yl}-6-methyl-3-(2H-1,2,3-triazol-2-yl)pyridine-2-carboxamide]
6.89 | 8.80 | CCN(C(=O)c1cc(F)ccc1-n1nccn1)[C@@H](C)Cn1nnc(-c2ccc(F)cc2)n1 [Example 66, N-Ethyl-5-fluoro-N-{(2S)-1-[5-(4-fluorophenyl)-2H-tetrazol-2-yl]propan-2-yl}-2-(2H-1,2,3-triazol-2-yl) benzamide]
7.12 | 8.74 | CCN(C(=O)c1ccccc1-n1nccn1)[C@@H](C)Cn1nnc(-c2ccc(F)cc2)n1 [Example 67]
7.47 | 9.10 | CCN(C(=O)c1cc(C)ccc1-c1ncccn1)[C@@H](C)Cn1nnc(-c2ccc(F)cc2)n1 [Example 68, N-Ethyl-N-{(2S)-1-[5-(4-fluorophenyl)-2H-tetrazol-2-yl]propan-2-yl}-5-methyl-2-(pyrimidin-2-yl)benzamide]

Further lines, the compound ahead of its results:

SMILES | pIC50 [1] | pIC50 [2]
Cc1ccc(-n2nccn2)c(C(=O)N(C)[C@@H](C)Cc2noc(-c3ccc(F)cn3)n2)c1 [Example 45, N-{(2S)-1-[5-(5-Fluoropyridin-2-yl)-1,2,4-oxadiazol-3-yl]propan-2-yl}-N,5-dimethyl-2-(2H-1,2,3-triazol-2-yl)benzamide] | 7.12 | 8.48
CCN(C(=O)c1cc(C)ccc1-c1ncccn1)[C@@H](C)Cc1noc(-c2ccc(F)cn2)n1 [Example 48, N-Ethyl-N-{(2S)-1-[5-(5-fluoropyridin-2-yl)-1,2,4-oxadiazol-3-yl]propan-2-yl}-5-methyl-2-(pyrimidin-2-yl)benzamide] | 7.55 | 9.05
CCN(C(=O)c1nc(C)ccc1-n1nccn1)[C@@H](C)Cc1noc(-c2ccc(F)cc2)n1 [Example 49, N-Ethyl-N-{(2S)-1-[5-(4-fluorophenyl)-1,2,4-oxadiazol-3-yl]propan-2-yl}-6-methyl-3-(2H-1,2,3-triazol-2-yl)pyridine-2-carboxamide] | 7.49 | 8.96
CCN(C(=O)c1nc(C)ccc1-c1ncccn1)[C@@H](C)Cc1noc(-c2ccc(F)cc2)n1 [Example 52, N-Ethyl-N-{(2S)-1-[5-(4-fluorophenyl)-1,2,4-oxadiazol-3-yl]propan-2-yl}-6-methyl-3-(pyrimidin-2-yl)pyridine-2-carboxamide] | 6.43 | 8.04
CCN(C(=O)c1cc(F)ccc1-c1ncccn1)[C@@H](C)Cc1noc(-c2ccc(F)cc2)n1 [Example 53, N-Ethyl-5-fluoro-N-{(2S)-1-[5-(4-fluorophenyl)-1,2,4-oxadiazol-3-yl]propan-2-yl}-2-(pyrimidin-2-yl) benzamide] | 7.12 | 8.18
CCN(C(=O)c1ccccc1-c1ncccn1)[C@@H](C)Cc1noc(-c2ccc(F)cc2)n1 [Example 54, N-Ethyl-N-{(2S)-1-[5-(4-fluorophenyl)-1,2,4-oxadiazol-3-yl]propan-2-yl}-2-(pyrimidin-2-yl)benzamide] | 7.12 | 8.70
CCN(C(=O)c1cc(C)ccc1-c1ncccn1)[C@@H](C)Cc1noc(-c2ccc(F)cc2)n1 [Example 55, N-Ethyl-N-{(2S)-1-[5-(4-fluorophenyl)-1,2,4-oxadiazol-3-yl]propan-2-yl}-5-methyl-2-(pyrimidin-2-yl)benzamide] | 8.03 | 8.85
CCN(C(=O)c1ccccc1-n1nccn1)[C@@H](C)Cc1noc(-c2ccc(F)cn2)n1 [Example 56, N-Ethyl-N-{(2S)-1-[5-(5-fluoropyridin-2-yl)-1,2,4-oxadiazol-3-yl]propan-2-yl}-2-(2H-1,2,3-triazol-2-yl)benzamide] | 6.22 | 8.30
CCN(C(=O)c1cc(F)ccc1-n1nccn1)[C@@H](C)Cc1noc(-c2ccc(F)cn2)n1 [Example 57, N-Ethyl-5-fluoro-N-{(2S)-1-[5-(5-fluoropyridin-2-yl)-1,2,4-oxadiazol-3-yl]propan-2-yl}-2-(2H-1,2,3-triazol-2-yl) benzamide] | 5.97 | 8.29
CCN(C(=O)c1nc(C)ccc1-n1nccn1)[C@@H](C)Cc1noc(-c2ccc(F)cn2)n1 [Example 58, N-Ethyl-N-{(2S)-1-[5-(5-fluoropyridin-2-yl)-1,2,4-oxadiazol-3-yl]propan-2-yl}-6-methyl-3-(2H-1,2,3-triazol-2-yl) pyridine-2-carboxamide] | 5.79 | 7.65
Cc1ccc(-c2ncccn2)c(C(=O)N(C)[C@@H](C)Cc2noc(-c3ccc(F)cc3)n2)c1 [Example 60, N-{(2S)-1-[5-(4-Fluorophenyl)-1,2,4-oxadiazol-3-yl]propan-2-yl}-N,5-dimethyl-2-(pyrimidin-2-yl)benzamide] | 7.35 | 8.89
